In patent publication US20230293539A1, “MLL1-WDR5 PROTEIN-PROTEIN INTERACTION INHIBITOR COMPOUNDS AND USES THEREOF” (HUYABIO International, LLC, priority 2022, published 2023):

Experiment: PK profile of HBI-2375 in plasma and brain in C57BL/6J mice
Assay type: in vivo
Details: for AUClast Ratio, group 3 vs 2 / Cmax Ratio, group 3 vs 2: repeat PO vs PO 80 mg/kg; for Cmax at 7 day / Tmax at 7 day / Cmax / MRT last / Tmax: mouse, C57BL/6J mice; for Cmax at 7 day / Tmax at 7 day: 7-day repeat PO 80 mg/kg
Protocol: EXAMPLE 4: PK profile of compound of Formula (IIIb) (HBI-2375, HYBI-84) in plasma and brain in C57BL/6J mice: This study was conducted in accordance with the Study Protocol and Pharmaron (Ningbo) TSP's Standard Operating Procedures (SOPs) following all regulatory protocols. This study was conducted under non-GLP environment.
Following single oral gavage administration of HBI-2375 at 40 mg/kg, 80 mg/kg, and 7-day repeat oral gavage administration at 80 mg/kg in C57BL/6J mice, concentrations of HBI-2375 in plasma and brain were determined by LC-MS/MS methods. […] The maximal concentrations of HBI-2375 in brain were all observed at 4 hr post-dose. […] The exposure of HBI-2375 in plasma and brain of females were closed to that of males, the ratios were 0.989-1.22 for plasma, and 1.10-1.34 for brain.

[1] = mice, repeat PO 80 mg/kg, brain
[2] = mice, repeat PO 80 mg/kg, plasma
[3] = mice, single PO 40 mg/kg, brain
[4] = mice, single PO 40 mg/kg, plasma
[5] = mice, single PO 80 mg/kg, brain
[6] = mice, single PO 80 mg/kg, plasma
[7] = single PO 40 mg/kg, brain, female
[8] = single PO 40 mg/kg, brain, male
[9] = single PO 40 mg/kg, plasma, female
[10] = single PO 40 mg/kg, plasma, male
[11] = single PO 80 mg/kg, brain, female
[12] = single PO 80 mg/kg, brain, male
[13] = single PO 80 mg/kg, plasma, female
[14] = single PO 80 mg/kg, plasma, male

Cc1c(F)c(N)cc(C(=O)Nc2cc(-n3cc(C(=O)N4CCN(C)CC4)nn3)c(F)cc2N2C[C@@H](C)N(C)[C@@H](C)C2)c1Cl [HYBI-084, 5-amino-2-chloro-4-fluoro-N-(4-fluoro-5-(4-(4-methylpiperazine-1-carbonyl)-1H-1,2,3-triazol-1-yl)-2-((3S,5R)-3,4,5-trimethylpiperazin-1-yl)phenyl)-3-methylbenzamide]
AUClast ratios 7-day repeat vs single-dose 80 mg/kg (mice, plasma, both sexes): 1.04-1.23 | AUClast ratios 80 vs 40 mg/kg single dose (mice, plasma, both sexes): 2.32-2.41 | AUClast Ratio Female/Male [1]: 1.34 | Cmax Ratio Female/Male [1]: 1.24 | C24hr/Cmax Ratio (%) (mice, repeat PO 80 mg/kg, brain, female): 18.9% | C24hr/Cmax Ratio (%) (mice, repeat PO 80 mg/kg, brain, male): 14.4% | AUClast Ratio Female/Male [2]: 1.22 | Cmax Ratio Female/Male [2]: 1.27 | C24hr/Cmax Ratio (%) (mice, repeat PO 80 mg/kg, plasma, female): 3.94% | C24hr/Cmax Ratio (%) (mice, repeat PO 80 mg/kg, plasma, male): 2.68% | AUClast Ratio, group 3 vs 2 (mice, brain, female): 1.87 | Cmax Ratio, group 3 vs 2 (mice, brain, female): 1.60 | AUClast Ratio, group 3 vs 2 (mice, brain, male): 1.54 | Cmax Ratio, group 3 vs 2 (mice, brain, male): 1.44 | AUClast Ratio, group 3 vs 2 (mice, plasma, female): 1.23 | Cmax Ratio, group 3 vs 2 (mice, plasma, female): 0.726 | AUClast Ratio, group 3 vs 2 (mice, plasma, male): 1.04 | Cmax Ratio, group 3 vs 2 (mice, plasma, male): 0.552 | AUClast Ratio Female/Male [3]: 1.16 | Cmax Ratio Female/Male [3]: 1.15 | mean concentration at 24 hr post-dose as % of Cmax (mice, single PO 40 mg/kg, brain, both sexes): 10.4-11.1% | C24hr/Cmax Ratio (%) (mice, single PO 40 mg/kg, brain, female): 11.1% | C24hr/Cmax Ratio (%) (mice, single PO 40 mg/kg, brain, male): 10.4% | AUClast Ratio Female/Male [4]: 0.989 | Cmax Ratio Female/Male [4]: 0.976 | mean concentration at 24 hr post-dose as % of Cmax (mice, single PO 40 mg/kg, plasma, both sexes): 0.748-1.10% | C24hr/Cmax Ratio (%) (mice, single PO 40 mg/kg, plasma, female): 1.10% | C24hr/Cmax Ratio (%) (mice, single PO 40 mg/kg, plasma, male): 0.748% | AUClast Ratio Female/Male [5]: 1.10 | Cmax Ratio Female/Male [5]: 1.11 | mean concentration at 24 hr post-dose as % of Cmax (mice, single PO 80 mg/kg, brain, both sexes): 9.71-11.2% | C24hr/Cmax Ratio (%) (mice, single PO 80 mg/kg, brain, female): 9.71% | C24hr/Cmax Ratio (%) (mice, single PO 80 mg/kg, brain, male): 11.2% | AUClast Ratio Female/Male [6]: 1.03 | Cmax Ratio Female/Male [6]: 0.967 | mean concentration at 24 hr post-dose as % of Cmax (mice, single PO 80 mg/kg, plasma, both sexes): 0.671-0.757% | C24hr/Cmax Ratio (%) (mice, single PO 80 mg/kg, plasma, female): 0.671% | C24hr/Cmax Ratio (%) (mice, single PO 80 mg/kg, plasma, male): 0.757% | in-life observations (mice, single PO 40, 80 mg/kg and 7-day repeat PO 80 mg/kg): no abnormalities were observed | dose proportionality of AUClast and Cmax in plasma and brain (mice, single PO 40 and 80 mg/kg): proportional increase of exposure | Cmax at 7 day (brain, female): 892 ng/g | Tmax at 7 day (brain, female): 4 h | Cmax at 7 day (brain, male): 722 ng/g | Tmax at 7 day (brain, male): 4 h | Cmax at 7 day (plasma, female): 2840 ng/mL | Tmax at 7 day (plasma, female): 1 h | Cmax at 7 day (plasma, male): 2230 ng/mL | Tmax at 7 day (plasma, male): 1 h | Cmax [7]: 192 ng/g | MRT last [7]: 8.25 h | Tmax [7]: 4 h | Cmax [8]: 167 ng/g | MRT last [8]: 8.05 h | Tmax [8]: 4 h | Cmax [9]: 1120 ng/mL | MRT last [9]: 5.3 h | Tmax [9]: 0.5 h | Cmax [10]: 1150 ng/mL | MRT last [10]: 5.22 h | Tmax [10]: 0.5 h | Cmax [11]: 556 ng/g | MRT last [11]: 8.01 h | Tmax [11]: 4 h | Cmax [12]: 500 ng/g | MRT last [12]: 8.4 h | Tmax [12]: 4 h | Cmax [13]: 3910 ng/mL | MRT last [13]: 4.86 h | Tmax [13]: 0.5 h | Cmax [14]: 4040 ng/mL | MRT last [14]: 5.46 h | Tmax [14]: 0.5 h
